The values that follow come from the Kinase Knowledgebase extract (Sharma et al. 2016).

One assay deals with PIK3CD (Human) (UniProt O00329). Put plainly: Assessment of PIK3CD Kinase Activity (Scintillation Proximity Assay).
PIK3CD (Human), sequence (O00329 whole entry, looked up): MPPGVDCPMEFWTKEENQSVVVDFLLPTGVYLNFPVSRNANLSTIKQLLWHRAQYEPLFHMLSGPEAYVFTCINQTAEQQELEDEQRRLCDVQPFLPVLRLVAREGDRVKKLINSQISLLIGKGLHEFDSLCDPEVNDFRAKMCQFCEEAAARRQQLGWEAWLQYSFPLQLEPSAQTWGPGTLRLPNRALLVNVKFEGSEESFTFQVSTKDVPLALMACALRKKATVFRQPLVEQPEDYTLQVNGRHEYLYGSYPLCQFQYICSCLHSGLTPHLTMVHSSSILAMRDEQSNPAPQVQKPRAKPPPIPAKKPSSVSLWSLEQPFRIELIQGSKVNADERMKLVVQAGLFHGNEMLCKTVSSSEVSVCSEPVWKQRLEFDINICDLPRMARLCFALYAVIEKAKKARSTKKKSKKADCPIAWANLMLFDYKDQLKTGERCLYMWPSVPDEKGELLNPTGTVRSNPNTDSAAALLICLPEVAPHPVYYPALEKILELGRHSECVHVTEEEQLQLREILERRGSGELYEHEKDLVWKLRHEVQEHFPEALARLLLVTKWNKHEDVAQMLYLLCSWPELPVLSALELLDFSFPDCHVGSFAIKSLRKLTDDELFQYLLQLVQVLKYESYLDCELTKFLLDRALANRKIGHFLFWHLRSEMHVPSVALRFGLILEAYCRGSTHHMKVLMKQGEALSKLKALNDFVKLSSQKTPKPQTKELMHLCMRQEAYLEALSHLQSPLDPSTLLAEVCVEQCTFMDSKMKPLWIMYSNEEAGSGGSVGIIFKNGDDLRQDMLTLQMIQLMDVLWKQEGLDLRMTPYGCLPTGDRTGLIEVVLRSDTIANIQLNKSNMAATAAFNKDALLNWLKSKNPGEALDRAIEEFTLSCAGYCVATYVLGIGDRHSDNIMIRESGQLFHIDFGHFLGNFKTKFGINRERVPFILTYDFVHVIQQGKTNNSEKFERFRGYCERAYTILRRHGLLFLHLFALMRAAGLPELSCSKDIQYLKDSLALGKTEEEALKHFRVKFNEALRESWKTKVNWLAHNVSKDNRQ
Regarding `CCOc1c(C(C)n2nc(-c3cnn(C)c3)c3c(N)ncnc32)cc(Cl)c(C)c1-c1ccc(C(=O)N(C)C)nc1` (centres undefined), the IC50 was not above 10 nM.

In turn, `CCOc1c(C(C)n2nc(C)c3c(N)ncnc32)cc(Cl)c(C)c1-c1ccnc(C(=O)N(C)C)c1` (centres undefined) came in with an IC50 not above 10 nM. `COc1c(C(C)n2nc(C)c3c(N)ncnc32)cc(Cl)c(C#N)c1C1CN(S(=O)(=O)C(C)C)C1` (centres undefined): the IC50 was not above 10 nM. Still for that read-out and setting: to `COc1c(C(C)n2nc(C)c3c(N)ncnc32)cc(Cl)c(C)c1C1CN(C(C)C)C1` (centres undefined) belongs not above 10 nM; to `COc1c(C(C)n2ccc(=O)c3c(N)ncnc32)cc(Cl)c(C)c1-c1cncc(S(C)(=O)=O)c1` (centres undefined), not above 10 nM. `COc1c(C(C)n2ccc(=O)c3c(N)ncnc32)cc(Cl)c(C)c1-c1cccnc1` (centres undefined) came in with an IC50 not above 10 nM.

As for `COc1c(C(C)n2nc(C)c3c(N)ncnc32)cc(Cl)c(C)c1-c1cnn(C2CCN(C)CC2)c1` (centres undefined), the IC50 is not above 10 nM. `CCOc1c(C(C)n2nc(C)c3c(N)ncnc32)cc(Cl)c(C#N)c1-c1cncnc1` (centres undefined) displayed an IC50 not above 10 nM. Still for that read-out and setting: to `CCOc1c(C(C)n2nc(C)c3c(N)ncnc32)cc(Cl)c(C)c1-c1cnn(CC(=O)NC)c1` (centres undefined) belongs not above 10 nM; to `CCOc1c(C(C)n2nc(C)c3c(N)ncnc32)cc(Cl)c(C#N)c1-c1cncc(S(C)(=O)=O)c1` (centres undefined), not above 10 nM.

Turning to `CCOc1c(C(C)n2nc(C)c3c(N)ncnc32)cc(Cl)c(C#N)c1C1CN(C[C@@H](C)O)C1` (some centres undefined), the IC50 was not above 10 nM.

Take `CCOc1c(C(C)n2nc(C)c3c(N)ncnc32)cc(Cl)c(F)c1C1CN(CC)C1` (centres undefined): the IC50 was not above 10 nM. The same measure, in the same setting: to `COc1c(C(C)n2nc(C)c3c(N)ncnc32)cc(Cl)c(C)c1-c1ccnc(N2CC(O)C2)c1` (centres undefined) belongs not above 10 nM; to `COc1c(C(C)n2nc(C)c3c(N)ncnc32)cc(Cl)c(C)c1-c1ccc(C(=O)N(C)C)c(F)c1` (centres undefined), not above 10 nM. `CCOc1c(C(C)n2nc(C#N)c3c(N)ncnc32)cc(Cl)c(C)c1-c1ccc(C(=O)N(C)C)nc1` (centres undefined) yielded an IC50 of 10 to 50 nM. Same read-out and setting: to `COc1c(C(C)n2nc(C)c3c(N)ncnc32)cc(Cl)c(C)c1-c1ccnc(C(=O)N(C)C)c1` (centres undefined) belongs not above 10 nM. The same measure, in the same setting: the figure for `CCOc1c(C(C)n2nc(C)c3c(N)ncnc32)cc(Cl)c(C#N)c1C1CCOC1` (centres undefined) is not above 10 nM.

With `CCOc1c(C(C)n2nc(C)c3c(N)ncnc32)cc(C)c(C#N)c1-c1cnn(C)c1` (centres undefined), the IC50 was not above 10 nM. Still for that read-out and setting: the figure for `CCOc1c(C(C)n2nc(C)c3c(N)ncnc32)cc(Cl)c(C#N)c1C1CN(C(=O)NC)C1` (centres undefined) is not above 10 nM. The same measure, in the same setting: the figure for `COc1c(C(C)n2nc(C)c3c(N)ncnc32)cc(Cl)c(Cl)c1C1CN(CCO)C1` (centres undefined) is not above 10 nM; for `COc1c(C(C)n2nc(C)c3c(N)ncnc32)cc(Cl)c(Cl)c1C1CN(CC#N)C1` (centres undefined) it is not above 10 nM; for `CCOc1c(C(C)n2nc(C)c3c(N)ncnc32)cc(Cl)c(C#N)c1C1CNC(=O)C1` (centres undefined) it is not above 10 nM. On the same count and under the same terms, to `CNC(=O)[C@H](C)N1CC(c2c(C)c(C#N)cc(C(C)n3nc(C(F)F)c4c(N)ncnc43)c2OC)C1` (some centres undefined) belongs not above 10 nM; to `CCOc1c(C(C)n2nc(C)c3c(N)ncnc32)cc(Cl)c(C#N)c1C1CN(C[C@H](C)O)C1` (some centres undefined), not above 10 nM; to `CCOc1c(C(C)n2nc(C)c3c(N)ncnc32)cc(Cl)c(C#N)c1C1CN(C(C)(C)C(=O)N(C)C)C1` (centres undefined), not above 10 nM. Take `CCOc1c(C(C)n2nc(-c3ccncc3)c3c(N)ncnc32)cc(Cl)c(C)c1-c1ccc(C(=O)N(C)C)nc1` (centres undefined): the IC50 was not above 10 nM.

With `COc1c(C(C)n2nc(C)c3c(N)ncnc32)cc(Cl)c(C)c1-c1ccnc(C(=O)NCCO)c1` (centres undefined), the IC50 was not above 10 nM. Molecule `COc1c(C(C)n2nc(C)c3c(N)ncnc32)cc(Cl)c(C#N)c1C1CN(CC(C)(C)O)C1` (centres undefined) returned an IC50 not above 10 nM. Turning to `COc1c(C(C)n2nc(C)c3c(N)ncnc32)cc(Cl)c(C)c1C1CN(C[C@@H](C)O)C1` (some centres undefined), the IC50 is not above 10 nM. For the molecule `COc1c(C(C)n2nc(C)c3c(N)ncnc32)cc(Cl)c(Cl)c1C1CN(C2COC2)C1` (centres undefined), the IC50 is not above 10 nM. Same read-out and setting: to `CCOc1c(C(C)n2nc(C)c3c(N)ncnc32)cc(Cl)c(C#N)c1C1CN(S(=O)(=O)C2CC2)C1` (centres undefined) belongs not above 10 nM. Still for that read-out and setting: to `CCOc1c(C(C)n2nc(-c3cn[nH]c3)c3c(N)ncnc32)cc(Cl)c(C)c1-c1ccc(C(=O)N(C)C)nc1` (centres undefined) belongs not above 10 nM; to `COc1c(C(C)n2nc(C)c3c(N)ncnc32)cc(Cl)c(C)c1C1CN(C[C@H](O)C(F)(F)F)C1` (some centres undefined), not above 10 nM. On the same count and under the same terms, to `CCOc1c(C(C)n2nc(C)c3c(N)ncnc32)cc(Cl)c(C#N)c1C1CN(CCOC)C1` (centres undefined) belongs not above 10 nM; to `COc1c(C(C)n2nc(C)c3c(N)ncnc32)cc(Cl)c(C)c1C1CN([C@H](C)CO)C1` (some centres undefined), not above 10 nM; to `CCOc1c(C(C)n2nc(C)c3c(N)ncnc32)cc(Cl)c(F)c1C1CN(CC(F)(F)F)C1` (centres undefined), not above 10 nM. With `CCOc1c(C(C)n2nc(C)c3c(N)ncnc32)cc(Cl)c(C#N)c1C1CN(CC(C)C)C1` (centres undefined), the IC50 was not above 10 nM. Same read-out and setting: the figure for `COc1c(C(C)n2nc(C)c3c(N)ncnc32)cc(Cl)c(C)c1CC1CC1` (centres undefined) is 50 to 200 nM.

The molecule `CCOc1c(C(C)n2nc(C)c3c(N)ncnc32)cc(Cl)c(C)c1C1CN(CC(C)(C)O)C1` (centres undefined) had an IC50 not above 10 nM.

`CCOc1c(C(C)n2nc(C)c3c(N)ncnc32)cc(Cl)c(F)c1C1CN(CCO)C1` (centres undefined) yielded an IC50 not above 10 nM. Same read-out and setting: the figure for `CCNC(=O)c1c(C)c(Cl)cc(C(C)n2nc(-c3ccc4nc(N)sc4c3)c3c(N)ncnc32)c1OCC` (centres undefined) is not above 10 nM; for `COc1c(C(C)n2nc(C)c3c(N)ncnc32)cc(Cl)c(C)c1C1CN([C@@H](C)CO)C1` (some centres undefined) it is not above 10 nM. Same read-out and setting: the figure for `CCOc1c(C(C)n2nc(C)c3c(N)ncnc32)cc(C)c(C#N)c1C1CN(CCO)C1` (centres undefined) is not above 10 nM.

`COc1c(C(C)n2nc(C)c3c(N)ncnc32)cc(Cl)c(C#N)c1C1CN(CC2CCOC2)C1` (centres undefined) registered an IC50 not above 10 nM.

For the molecule `COc1c(C(C)n2nc(C)c3c(N)ncnc32)cc(Cl)c(C)c1-c1cncc(S(C)(=O)=O)c1` (centres undefined), the IC50 is not above 10 nM. The same measure, in the same setting: the figure for `CCOc1c(C(C)n2nc(C)c3c(N)ncnc32)cc(Cl)c(F)c1C1CN(C[C@@H](C)O)C1` (some centres undefined) is not above 10 nM; for `CCOc1c(C(C)n2nc(C)c3c(N)ncnc32)cc(Cl)c(C#N)c1C1CN(C(C)(C)C(=O)OC(C)(C)C)C1` (centres undefined) it is not above 10 nM. On the same count and under the same terms, to `COc1c(C(C)n2nc(C)c3c(N)ncnc32)cc(Cl)c(C)c1C1CN(C(C)C#N)C1` (centres undefined) belongs not above 10 nM; to `CCOc1c(C(C)n2nc(C)c3c(N)ncnc32)cc(C)c(C#N)c1C1CN(C[C@H](C)O)C1` (some centres undefined), not above 10 nM. Same read-out and setting: to `COc1c(C(C)n2nc(C)c3c(N)ncnc32)cc(Cl)c(C)c1C1CN(CC(F)(F)F)C1` (centres undefined) belongs not above 10 nM; to `COc1c(C(C)n2nc(C)c3c(N)ncnc32)cc(Cl)c(C)c1C1CN(C2COC2)C1` (centres undefined), not above 10 nM.

Turning to `COc1c(C(C)n2nc(C)c3c(N)ncnc32)cc(Cl)c(C#N)c1C1CN(C(C)CO)C1` (centres undefined), the concentration for half-maximal inhibition (IC50) is not above 10 nM. On the same count and under the same terms, the figure for `CNC(=O)c1ccc(-c2c(C)c(Cl)cc(C(C)n3nc(C)c4c(N)ncnc43)c2OC)cc1F` (centres undefined) is not above 10 nM; for `CCOc1c(C(C)n2nc(C)c3c(N)ncnc32)cc(Cl)c(C#N)c1C1CN(C(=O)OC)C1` (centres undefined) it is not above 10 nM. Same read-out and setting: to `CCOc1c(C(C)n2nc(C)c3c(N)ncnc32)cc(Cl)c(C#N)c1C1CN(S(C)(=O)=O)C1` (centres undefined) belongs not above 10 nM; to `COc1c(C(C)n2nc(C)c3c(N)ncnc32)cc(C)c(C#N)c1C1CN(C[C@H](C)O)C1` (some centres undefined), not above 10 nM. The same measure, in the same setting: to `CCOc1c(C(C)n2nc(C3CC3)c3c(N)ncnc32)cc(Cl)c(C)c1-c1ccc(C(=O)N(C)C)nc1` (centres undefined) belongs not above 10 nM; to `CCOc1c(C(C)n2nc(C)c3c(N)ncnc32)cc(Cl)c(C#N)c1C1CN(S(=O)(=O)C(C)C)C1` (centres undefined), not above 10 nM.

The target is the same in another assay.
Test: not given
In the case of `COc1c([C@@H](C)n2nc(C)c3c(N)ncnc32)cc(Cl)c(C#N)c1C1CN(C[C@@H](C)O)C1`, the IC50 was in the range of 50 to 200 nM.

One may read the IC50 as the point on the concentration scale where inhibition reaches its midpoint.
